According to paper PMC7907646, “Identification of a Novel Pattern Recognition Receptor DM9 Domain Containing Protein 4 as a Marker for Pro-Hemocyte of Pacific Oyster Crassostrea gigas” (Frontiers in Immunology, 2021):

Target: T1, CgDM9CP-4 (rCgDM9CP-4) (Magallana gigas, UniProt A0A8W8N023)
T1 construct: full ORF, 145 residues, two tandem DM9 domains, predicted 16 kDa (~18 kDa on gel); pET-30a (NdeI/XhoI), His tag, E. coli Transetta (DE3), Ni column
Test: ELISA on mannose-coated plate, one-site fit
Type: binding
Conditions: apparent Kd; mannose coated at 20 μg in pH 9.6 buffer; 5 mmol L^-1 CaCl2, 0.1 mg mL^-1 BSA, 37°C; anti-His detection

T1 sequence (A0A8W8N023 entry or part of it): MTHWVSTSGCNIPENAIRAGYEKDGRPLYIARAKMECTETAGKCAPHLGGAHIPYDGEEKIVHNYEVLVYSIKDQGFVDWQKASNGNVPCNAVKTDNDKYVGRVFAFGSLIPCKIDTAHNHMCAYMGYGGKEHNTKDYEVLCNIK

Kd: 0.09 µM
SMILES: OC[C@H]1OC(O)[C@@H](O)[C@@H](O)[C@@H]1O (stereo partly shown) [Mannose]
